Test results taken from patent US11713470B2, “Targeted gene therapies for pain and other neuro-related disorders” (University of Pittsburgh—Of the Commonwealth System of …, priority 2017, dated 2023).
“Also recorded” adds a separate entry of the source.

What was measured:
Type in all cases: in vivo, mouse
[1] = system: mice lacking PSAM-GlyR; assay: Pain models (carrageenan, CFA, sural-SNI) in mice lacking PSAM-GlyR (ligand-alone control); details: 30 mg/kg i.p.
From the text: (§1) Methods. Animals: All animals were kept on a standard 12:12 light/dark cycle in micro-isolator caging racks (Allentown Caging) with food and water provided ad libitum. Mouse strains obtained from Jackson Laboratories include C57Bl/6J (JAX #000664), Calr^Cre (JAX #010774) and CCK^Cre (JAX #012706). Adeno-associated viruses (AAV2/8) used in these experiments: hSyn-Flex-rev-PSAM^L141F-GlyR-IRES-eGFP (7^12 vg/ml) and hSyn-Flex-rev-PSAM^L141F,Y115F-GlyR-IRES-eGFP (1.7^13 vg/ml) were custom made by UNC Vector core based on plasmid material developed by Scott Sternson and provided by Addgene. The hSyn-Flex-rev-PSAM^L141F-GlyR-IRES-eGFP (7^12 vg/ml) was used in all experiments except FIG. 8 (e,f). For these experiments, hSyn-Flex-rev-PSAM^L141F,Y115F-GlyR-IRES-eGFP (1.7^13 vg/ml) was used. Methods including: intra-spinal virus injections, paw withdrawal threshold to von Frey filaments, to cotton swab, Hargreaves, pinprick and acute pain behaviors licking, guarding, flicking are all as previously described (Peirs, C. et al. Dorsal Horn Circuits for Persistent Mechanical Pain. Neuron 87, 797-812 (2015); Seal, R. P. et al. Injury-induced mechanical hypersensitivity requires C-low threshold mechanoreceptors. Nature 462, 651-655, (2009)); For paw withdrawal threshold to pressure: mice were lightly restrained by hand such that their rear legs were allowed to freely hang. Using a Pressure Application Measurement device (Ugo Basile) the hind paw was grasped between the experimenter's forefinger and thumb (with pressure transducer on the thumb), and force was slowly applied to the paw until the mouse struggled or flicked its limb (paw withdrawal threshold, PWT). The final force in grams was recorded. Each mouse was tested on the left and right paw for three trials with a ten-minute inter-trial interval between applications, and the three results averaged for each paw. Injury Models including incision, complete Freund's adjuvant, spared nerve injury tibial and sural models, carrageenan, methylglyoxal and multi-dose streptozotocin are as previously described (Peirs, C. et al. Dorsal Horn Circuits for Persistent Mechanical Pain. Neuron 87, 797-812 (2015); Seal, R. P. et al. Injury-induced mechanical hypersensitivity requires C-low threshold mechanoreceptors. Nature 462, 651-655, (2009); Decosterd, I. and Woolf, C. J. Spared nerve injury: an animal model of persistent peripheral neuropathic pain. Pain 87, 149-158 (2000); Bierhaus, A. et al. Methylglyoxal modification of Nav1.8 facilitates nociceptive neuron firing and causes hyperalgesia in diabetic neuropathy. Nat Med 18, 926-933 (2012); Cavanaugh, D. J. et al. Distinct subsets of unmyelinated primary sensory fibers mediate behavioral responses to noxious thermal and mechanical stimuli. Proc Natl Acad Sci USA 106, 9075-9080, (2009)). Chemogenetic Activation of PSAM-GlyR Receptor: Behavior thresholds were performed as described above in AAV8-hSyn-DIO-PSAM-GlyR-IRES-GFP injected mice. PSEM^89S at 30 mg/kg was injected intraperitoneally 15 minutes prior to testing. Immunohistochemistry was performed as previously described (Peirs, C. et al. Dorsal Horn Circuits for Persistent Mechanical Pain. Neuron 87, 797-812 (2015); Seal, R. P. et al. Injury-induced mechanical hypersensitivity requires C-low threshold mechanoreceptors. Nature 462, 651-655 (2009)). α-bungarotoxin conjugated to Alexa-647 (1:1000; ThermoFisher B35450), α-bungarotoxin conjugated to Alexa-488 (1:1000; ThermoFisher B13422). Imaging: Spinal cord sections were imaged with a confocal laser-scanning microscope (Nikon A1R) and Nikon Elements software using 405-, 488-, 561- and 640 nm excitation laser light. In order to suppress emission crosstalk, the microscope was configured to perform all scanning in sequential mode. Z-series were scanned at 20× magnification with an oil immersion lens and a z-step of 5.0 μm. Quantification and Statistical Analysis: all data are reported as mean±SEM. For acute behaviors, a two-tailed Student's t-test was used. […]

[2] = target: T1, PSAM-GlyR in CCK^+ dorsal horn neurons (Homo sapiens, UniProt P23415+P36544, L141F); assay: Persistent pain models in mice expressing PSAM-GlyR in CCK^+ dorsal horn neurons; details: 30 mg/kg i.p., PSAM-GlyR in CCK^+ neurons
T1 construct: plasmid from Addgene (Sternson); host or cells: mouse dorsal horn neurons transduced with Cre-dependent AAV2/8 (Tlx3^Cre, CCK^Cre or Calr^Cre mice)
From the text: as §1

[3] = target: T2, PSAM-GlyR in CCK^+ dorsal horn neurons (Homo sapiens, UniProt P23415+P36544, L141F/Y115F); assay: as above; details: PSAM^L141F,Y115F-GlyR virus, CCK^+ neurons
T2 construct: plasmid from Addgene (Sternson); host or cells: mouse dorsal horn neurons transduced with Cre-dependent AAV2/8 (Tlx3^Cre, CCK^Cre or Calr^Cre mice)
From the text: as §1

T1 sequence (P36544+P23415 fused P36544:L141F): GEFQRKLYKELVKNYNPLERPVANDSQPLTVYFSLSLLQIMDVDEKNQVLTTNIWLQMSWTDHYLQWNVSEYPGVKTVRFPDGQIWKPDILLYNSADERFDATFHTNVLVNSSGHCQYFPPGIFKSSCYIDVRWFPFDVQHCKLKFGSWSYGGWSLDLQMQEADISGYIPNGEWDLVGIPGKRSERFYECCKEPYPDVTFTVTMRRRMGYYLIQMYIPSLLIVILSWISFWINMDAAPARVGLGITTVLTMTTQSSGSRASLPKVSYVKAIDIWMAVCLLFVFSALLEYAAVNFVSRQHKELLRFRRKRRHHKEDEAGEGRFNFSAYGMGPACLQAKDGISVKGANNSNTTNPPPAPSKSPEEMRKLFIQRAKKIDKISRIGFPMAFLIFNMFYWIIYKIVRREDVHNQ
T2 sequence (P36544+P23415 fused P36544:Y115F/P36544:L141F): as the sequence (P36544+P23415 fused P36544:L141F) above, with Y93F counted along it

In the case of `COc1ccc(OC)c(C(=O)NC2CN3CCC2CC3)c1` (centres unmarked) [PSEM^89S], the “dynamic allodynia induced by the sural-SNI model” value [1] is reported as “not altered”, the “punctate allodynia induced by the sural-SNI model” value [1] is reported as “not altered” and the “dynamic allodynia induced by CFA” value ([1]; p>0.999) is reported as “not altered; also recorded: no effect”. The “heat hypersensitivity, carrageenan pain model” value ([1]; p>0.999) was “not altered; also recorded: no effect”, the “mechanical allodynia, carrageenan pain model” value ([1]; p>0.999) was “not altered; also recorded: no effect” and the “punctate allodynia induced by CFA” value ([1]; p>0.999) was “not altered; also recorded: no effect”. The “dynamic allodynia, carrageenan pain model” value ([2]; p=0.0001) was “significantly reversed”, the “dynamic allodynia, sural-SNI model” value ([2]; p=0.0001) was “significantly reversed” and the “heat hypersensitivity, carrageenan pain model” value ([2]; p=0.0002) was “significantly reversed”. The “punctate allodynia, sural-SNI model” value ([2]; p=0.0003) was “significantly reversed”, the “dynamic allodynia, CFA model” value ([2]; p=0.0016) was “markedly reversed; also recorded: significantly reversed” and the “punctate allodynia, carrageenan pain model” value ([2]; p=0.0017) was “significantly reversed”. For the same molecule, the “punctate allodynia, CFA model” value ([2]; p=0.0034) was “markedly reversed; also recorded: significantly reversed”, the “punctate allodynia, tibial-SNI model” value ([2]; p=0.0054) was “markedly reversed” and the “heat hypersensitivity, CFA model” value ([2]; p=0.0368) was “markedly reversed; also recorded: significantly reversed”. The “heat hypersensitivity induced by multi-dose STZ” value ([3]; p=0.010) was “reversed” and the “heat hypersensitivity induced by MG (methylglyoxal)” value ([3]; p=0.0272) was “reversed”.
